The record followed here is ChEMBL document CHEMBL1135403, “Nanomolar inhibitors of Staphylococcus aureus methionyl tRNA synthetase with potent antibacterial activity against gram-positive pathogens” (J Med Chem, 2002).

The test system of experiment [1] is Enterococcus faecalis. Kind of experiment: MIC required to inhibit 90% of the growth of Enterococcus faecalis (n = 10). Type of experiment: functional.
For experiment [2], the system named is Enterococcus faecalis. Put plainly: In vitro minimum inhibitory activity against Enterococcus faecalis 7 strain. Type of experiment: functional.
The next experiment concerns Enterococcus faecium. Put plainly: MIC required to inhibit 90% of the growth of Enterococcus faecium (n = 10). It counts as functional.
Experiment [3] deals with Staphylococcus aureus. Put plainly: MIC required to inhibit 90% of the growth of Staphylococcus aureus (n = 31). Type of experiment: functional.
Experiment [4] has as its system Staphylococcus aureus. Put plainly: In vitro minimum inhibitory activity against Staphylococcus aureus WCUH29 strain. Type of experiment: functional.
The subject of experiment [5] is Staphylococcus aureus. Kind of experiment: In vitro minimum inhibitory activity against Staphylococcus aureus Oxford strain. Type of experiment: functional.
For experiment [6], the system named is Staphylococcus epidermidis. Put plainly: MIC required to inhibit 90% of the growth of Staphylococcus epidermidis (n = 10). Type of experiment: functional.
In experiment [7] the test system is Enterococcus faecalis. Kind of experiment: In vitro minimum inhibitory activity against Enterococcus faecalis 1 strain. It counts as functional.
Experiment [8] concerns Staphylococcus aureus. Kind of experiment: In vitro inhibitory concentration against Staphylococcus aureus Methionyl tRNA synthetase. It counts as functional.
For experiment [9], the system named is Staphylococcus aureus. Put plainly: In vitro antibacterial activity and competitive kinetics with respect to methionine. Type of experiment: functional, organism-based.
Experiment [10] relates to Staphylococcus aureus. Kind of experiment: In vivo efficacy against Staphylococcus aureus WCUH29 in a Groin Abscess infection in rats at a dose of 21 mg/kg; log10 cfu. It counts as functional.
In another experiment the test system is Nucleic Acid. Put plainly: In vitro inhibitory concentration against tRNA synthetases, in a pyrophosphate exchange assay. It counts as functional, Staphylococcus aureus.
The test system of experiment [11] is Staphylococcus aureus. Kind of experiment: In vivo efficacy against Staphylococcus aureus WCUH29 in a Groin Abscess infection in rats at a dose of 50 mg/kg; log10 cfu. It counts as functional.

Converted amounts (≈) assume the structure as drawn.

The MIC90 is the lowest concentration that inhibits either 90% of growth or 90% of the strains tested, depending on the study. A higher MIC90 goes with weaker potency. For orientation: MIC means the lowest concentration that inhibits growth of the organism. Read a low MIC as greater potency. With `CC1(C)S[C@@H]2[C@H](NC(=O)[C@H](N)c3ccc(O)cc3)C(=O)N2[C@H]1C(=O)O` [AMOXICILLIN], the MIC90 in the experiment with Enterococcus faecalis [1] was over 16 µg/mL; against Enterococcus faecium it was over 16 µg/mL; in the experiment with Staphylococcus aureus [3], over 16 µg/mL; in experiment [6], 8 µg/mL (≈ 21.9 µM). The minimal inhibitory concentration (MIC) with Enterococcus faecalis [2] is 0.5 µg/mL (≈ 1.37 µM); with Staphylococcus aureus [4], over 64 µg/mL; with Staphylococcus aureus [5], 0.125 µg/mL (≈ 0.342 µM); with Enterococcus faecalis [7] it was 0.5 µg/mL (≈ 1.37 µM).
For `C/C(=C\C(=O)OCCCCCCCCC(=O)O)C[C@@H]1OC[C@H](C[C@@H]2O[C@H]2[C@@H](C)[C@H](C)O)[C@@H](O)[C@H]1O` [MUPIROCIN], the MIC in the experiment on Enterococcus faecalis [2] turned out to be 64 µg/mL (≈ 128 µM); in the experiment with Staphylococcus aureus [4], 0.25 µg/mL (≈ 0.499 µM); in the experiment on Enterococcus faecalis [7], 64 µg/mL (≈ 128 µM).
Usually IC50 stands for the concentration that inhibits the measured activity by half. Low values mean greater potency in that assay, high ones weaker potency in that assay. By Ki is commonly meant a measure of affinity in units of concentration, obtained from inhibition or displacement. A high value points to a looser hold on the target. Turning to `O=c1cc(NCCCNCc2ccc(Cl)c(Cl)c2)[nH]c2ccccc12`, the MIC against Enterococcus faecalis [2] amounted to 2 µg/mL (≈ 5.32 µM); in the experiment on Staphylococcus aureus [4], 8 µg/mL (≈ 21.3 µM); against Staphylococcus aureus [5], 4 µg/mL (≈ 10.6 µM); against Enterococcus faecalis [7] it was 2 µg/mL (≈ 5.32 µM). Further, the IC50 with Staphylococcus aureus [8] amounted to 16 nM. The Ki with Staphylococcus aureus [9] was 5 nM.
For `Oc1cc(NCCCNC2CCNc3c(Br)cc(Br)cc32)nc2ccccc12` (configuration not stated), the MIC90 is 0.03 µg/mL (≈ 0.0593 µM) in the experiment with Enterococcus faecalis [1], under 0.016 µg/mL with Enterococcus faecium, 0.5 µg/mL (≈ 0.988 µM) against Staphylococcus aureus [3] and 0.5 µg/mL (≈ 0.988 µM) in experiment [6]. Also, the minimal inhibitory concentration (MIC) against Enterococcus faecalis [2] was under 0.06 µg/mL; in the experiment with Staphylococcus aureus [4], 0.125 µg/mL (≈ 0.247 µM); against Staphylococcus aureus [5] it was under 0.06 µg/mL; against Enterococcus faecalis [7], under 0.06 µg/mL. The same compound yielded an IC50 in the experiment on Staphylococcus aureus [8] of 8 nM.
For `CCc1cc(I)c2c(c1)C(NCCCNc1cc(=O)c3ccccc3[nH]1)CCN2` (configuration not stated), the MIC90 against Enterococcus faecalis [1] was 0.25 µg/mL (≈ 0.498 µM); with Enterococcus faecium, 0.06 µg/mL (≈ 0.119 µM); with Staphylococcus aureus [3], 1 µg/mL (≈ 1.99 µM); in experiment [6], 1 µg/mL (≈ 1.99 µM). Further, the MIC was 0.125 µg/mL (≈ 0.249 µM) in the experiment with Enterococcus faecalis [2], 0.25 µg/mL (≈ 0.498 µM) against Staphylococcus aureus [4], 0.25 µg/mL (≈ 0.498 µM) with Staphylococcus aureus [5] and under 0.06 µg/mL in the experiment with Enterococcus faecalis [7]. In the experiment on Staphylococcus aureus [10], this compound came in with a Bacterial counts of 3.9. In the experiment with Nucleic Acid, this compound displayed a concentration for half-maximal inhibition (IC50) of 1.4 nM.
For the compound `CC[C@H]1OC(=O)[C@H](C)[C@@H](O[C@H]2C[C@@](C)(OC)[C@@H](O)[C@H](C)O2)[C@H](C)[C@@H](O[C@@H]2O[C@H](C)C[C@H](N(C)C)[C@H]2O)[C@](C)(O)C[C@@H](C)C(=O)[C@H](C)[C@@H](O)[C@]1(C)O` [ERYTHROMYCIN], the Bacterial counts in the experiment with Staphylococcus aureus [11] was 3.7.
